Reference: ChEMBL document CHEMBL1201862, “PubChem BioAssay data set” (2004)
Activity calls are given as the source filed them.

Legend:
[1] = tested on: Streptococcus sp. 'group A'; assay: Streptococcus pyogenes SK(-)GAS viability under kanamycin – luminescence, BacTiterGlo, confirmation, counter-screen for streptokinase expression inhibitor project, dose response (AID 1900); type: functional, organism-based
[2] = biological target: T1, Orexin receptor type 2 (Homo sapiens, UniProt O43614); assay: Counterscreen assay for antagonists of the orexin 1 receptor (OX1R; HCRTR1): Homogeneous Time Resolved Fluorescence (HTRF)-based cell-based dose response assay for antagonists of the orexin 2 receptor (OX2R; HCRTR2), run by assay provider.; type: functional
T1 sequence (O43614 whole entry): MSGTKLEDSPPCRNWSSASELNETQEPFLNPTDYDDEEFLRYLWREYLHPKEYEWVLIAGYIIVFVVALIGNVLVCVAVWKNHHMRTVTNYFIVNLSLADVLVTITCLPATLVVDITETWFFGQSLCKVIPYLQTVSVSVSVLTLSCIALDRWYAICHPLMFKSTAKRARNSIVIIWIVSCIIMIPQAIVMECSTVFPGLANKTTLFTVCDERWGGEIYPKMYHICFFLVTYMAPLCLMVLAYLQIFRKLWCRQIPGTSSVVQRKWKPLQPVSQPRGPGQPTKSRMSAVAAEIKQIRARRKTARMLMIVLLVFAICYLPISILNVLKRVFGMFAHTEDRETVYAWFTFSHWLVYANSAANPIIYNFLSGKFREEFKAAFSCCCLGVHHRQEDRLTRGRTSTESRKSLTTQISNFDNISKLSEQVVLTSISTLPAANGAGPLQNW

[3] = biological target: T2, Orexin/Hypocretin receptor type 1 (Homo sapiens, UniProt O43613); assay: Fluorescence-based cell-based high throughput dose response assay for antagonists of the orexin 1 receptor (OX1R; HCRTR1). [Related pubchem assays (depositor defined):AID434989, AID435008, AID463079, AID485270, AID492963, AID492964, AID492965, AID493232, AID504717, AID504718]; type: functional
T2 sequence (O43613 whole entry): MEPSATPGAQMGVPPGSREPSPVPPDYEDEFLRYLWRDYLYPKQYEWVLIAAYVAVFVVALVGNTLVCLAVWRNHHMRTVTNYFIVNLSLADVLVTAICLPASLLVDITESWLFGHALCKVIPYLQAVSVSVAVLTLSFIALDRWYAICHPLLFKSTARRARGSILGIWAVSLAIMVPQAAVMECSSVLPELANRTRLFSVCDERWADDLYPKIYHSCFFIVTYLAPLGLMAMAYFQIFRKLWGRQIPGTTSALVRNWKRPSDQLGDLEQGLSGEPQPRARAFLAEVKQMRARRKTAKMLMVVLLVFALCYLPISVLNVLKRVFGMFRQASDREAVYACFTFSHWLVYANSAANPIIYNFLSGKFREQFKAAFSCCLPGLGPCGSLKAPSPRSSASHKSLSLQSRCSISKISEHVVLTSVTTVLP

[4] = biological target: T2, Orexin/Hypocretin receptor type 1; assay: Homogeneous Time Resolved Fluorescence (HTRF)-based cell-based high throughput dose response assay for antagonists of the orexin 1 receptor (OX1R; HCRTR1). [Related pubchem assays (depositor defined):AID434989, AID435008, AID463079, AID485270, AID492963, AID492964, AID492965, AID493232, AID504717, AID504718]; type: functional
[5] = tested on: Streptococcus; assay: GAS UMAA2166 growth inhibition – luminescence, BacTiterGlo, counter-screen for streptokinase expression inhibitor project, dose response (AID 1915); type: functional, organism-based;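 also: potency for reduction of bacterial viability or growth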
[6] = Counterscreen for antagonists of the orexin 1 receptor (OX1R; HCRTR1): Fluorescence-based cell-based high throughput dose response assay to identify antagonists of the parental CHO cell line. [Related pubchem assays (depositor defined):AID434989, AID435008, AID463079, AID485270, AID492963, AID492964, AID492965, AID493232, AID504699, AID504701]; type: functional
[7] = tested on: CHO-K1; assay: Counterscreen for antagonists of the orexin 1 receptor (OX1R; HCRTR1): Homogeneous time resolved fluorescence (HTRF)-based cell-based dose response assay to identify antagonists of the parental CHO-K1 cell line. [Related pubchem assays (depositor defined):AID434989, AID435008, AID463079, AID485270, AID492963, AID492964, AID492965, AID493232, AID504699, AID504701]; type: functional; conditions: Cricetulus griseus;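 also: potency for inhibition of ATP-stimulated IP1 production as antagonists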
[8] = biological target: T1, Orexin receptor type 2; assay: Counterscreen assay for antagonists of the orexin 1 receptor (OX1R; HCRTR1): Fluorescence-based cell-based dose response assay for antagonists of the orexin 2 receptor (OX2R; HCRTR2), run by assay provider.; type: functional
[9] = tested on: HEK293; assay: EBV LMP1 TES2 canonical NF-kB signalling blockers – cell-based, HEK293, luciferase, cherry-pick, dose response (AID 588343); type: functional; conditions: Homo sapiens
[10] = biological target: Latent membrane protein 1 (Human herpesvirus 4 (strain B95-8), UniProt P03230); assay: LMP1 TES1 pathway selectivity over dsRED control – imaging, HEK293T, dual-color eGFP/dsRED, cherry-picks, selectivity assay for LMP1 NF-kB inhibitor project, dose response (AID 588398); type: functional, cell-based
Chain of Latent membrane protein 1 (P03230 whole entry): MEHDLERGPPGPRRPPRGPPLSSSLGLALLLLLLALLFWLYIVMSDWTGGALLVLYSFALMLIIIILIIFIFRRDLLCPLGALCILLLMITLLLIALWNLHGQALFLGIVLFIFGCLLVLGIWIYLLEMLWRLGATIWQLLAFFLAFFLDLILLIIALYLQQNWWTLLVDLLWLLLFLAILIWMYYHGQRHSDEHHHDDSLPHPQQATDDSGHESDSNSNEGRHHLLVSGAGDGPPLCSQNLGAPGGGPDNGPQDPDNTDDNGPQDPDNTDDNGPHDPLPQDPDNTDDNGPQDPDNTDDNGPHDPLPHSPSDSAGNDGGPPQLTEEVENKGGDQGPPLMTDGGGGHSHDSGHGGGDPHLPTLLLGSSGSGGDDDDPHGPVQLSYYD

[11] = biological target: T3, Acyl-homoserine lactone acylase PvdQ (Pseudomonas aeruginosa (strain LESB58), UniProt Q9I194); assay: PvdQ acylase enzyme activity blockers – biochemical, fluorescence, plate reader and imaging, cherry-picks, dose response (AID 493231)
T3 sequence (Q9I194 whole entry): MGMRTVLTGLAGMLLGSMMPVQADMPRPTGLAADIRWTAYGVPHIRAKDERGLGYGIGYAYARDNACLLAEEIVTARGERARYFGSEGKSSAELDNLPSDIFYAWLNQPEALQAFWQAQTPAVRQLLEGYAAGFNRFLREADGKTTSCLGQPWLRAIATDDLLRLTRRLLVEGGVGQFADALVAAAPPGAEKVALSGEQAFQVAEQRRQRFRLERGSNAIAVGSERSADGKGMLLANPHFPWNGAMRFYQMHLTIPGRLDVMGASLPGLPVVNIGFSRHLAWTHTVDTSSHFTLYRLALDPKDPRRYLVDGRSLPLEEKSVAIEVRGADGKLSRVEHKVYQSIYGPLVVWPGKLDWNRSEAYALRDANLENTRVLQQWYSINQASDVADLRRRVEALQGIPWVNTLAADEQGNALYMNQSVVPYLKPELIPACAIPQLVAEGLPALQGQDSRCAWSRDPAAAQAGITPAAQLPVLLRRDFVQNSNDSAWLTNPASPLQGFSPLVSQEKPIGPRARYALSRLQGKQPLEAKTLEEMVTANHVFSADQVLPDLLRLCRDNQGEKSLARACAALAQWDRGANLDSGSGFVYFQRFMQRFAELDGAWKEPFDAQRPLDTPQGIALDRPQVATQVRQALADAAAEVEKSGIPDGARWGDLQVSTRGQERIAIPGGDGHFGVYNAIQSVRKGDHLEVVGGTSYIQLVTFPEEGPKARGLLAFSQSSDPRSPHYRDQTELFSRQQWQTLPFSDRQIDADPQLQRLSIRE

[12] = Luminescence Cell-Based Dose Response Follow up to Identify Inhibitors of Platelet Dense Granule Release. [Related pubchem assays (depositor defined):AID1663, AID1678, AID2398]; type: functional
[13] = tested on: Jurkat; assay: SAR Analysis of small molecule inhibitors of T-cell specific antigen receptor-induced NF-kB activation in a Jurkat cell line using a luminescence assay. [Related pubchem assays (depositor defined):AID435003, AID435012, AID465]; type: functional, cell-based; conditions: Homo sapiens
[14] = tested on: HEK293; assay: SAR Analysis of small molecule inhibitors of T-cell specific antigen receptor-induced NF-kB activation in a HEK-293T cell line using a luminescence assay. [Related pubchem assays (depositor defined):AID435003, AID435012, AID489026]; type: functional, cell-based; conditions: Homo sapiens
[15] = tested on: HEK293; assay: HEK293T cell viability loss, resazurin readout – resazurin fluorescence, cytotoxicity control for NF-kB activator project, SAR follow-up (AID 493251); type: functional, cell-based; conditions: Homo sapiens
[16] = tested on: INS1; assay: beta-cell survival under cytokine stress – INS-1E, ATP luminescence, dry powder, dose response (AID 488844); type: functional, cell-based; conditions: Rattus norvegicus
[17] = suppression of NO production in INS-1E cells – cell-based, Griess absorbance, dry powder, set 3, dose response (AID 488870); type: functional; conditions: Rattus norvegicus
[18] = tested on: INS1; assay: suppression of NO production in INS-1E cells – cell-based, Griess absorbance, dry powder, set 2, dose response (AID 488868); type: functional; conditions: Rattus norvegicus
[19] = biological target: T4, Sentrin-specific protease 7 (Homo sapiens, UniProt Q9BQF6); assay: inhibition of human SENP7 cleavage activity – biochemical, luminescence, set 2, SAR follow-up (AID 588600); type: functional
T4 sequence (Q9BQF6 whole entry): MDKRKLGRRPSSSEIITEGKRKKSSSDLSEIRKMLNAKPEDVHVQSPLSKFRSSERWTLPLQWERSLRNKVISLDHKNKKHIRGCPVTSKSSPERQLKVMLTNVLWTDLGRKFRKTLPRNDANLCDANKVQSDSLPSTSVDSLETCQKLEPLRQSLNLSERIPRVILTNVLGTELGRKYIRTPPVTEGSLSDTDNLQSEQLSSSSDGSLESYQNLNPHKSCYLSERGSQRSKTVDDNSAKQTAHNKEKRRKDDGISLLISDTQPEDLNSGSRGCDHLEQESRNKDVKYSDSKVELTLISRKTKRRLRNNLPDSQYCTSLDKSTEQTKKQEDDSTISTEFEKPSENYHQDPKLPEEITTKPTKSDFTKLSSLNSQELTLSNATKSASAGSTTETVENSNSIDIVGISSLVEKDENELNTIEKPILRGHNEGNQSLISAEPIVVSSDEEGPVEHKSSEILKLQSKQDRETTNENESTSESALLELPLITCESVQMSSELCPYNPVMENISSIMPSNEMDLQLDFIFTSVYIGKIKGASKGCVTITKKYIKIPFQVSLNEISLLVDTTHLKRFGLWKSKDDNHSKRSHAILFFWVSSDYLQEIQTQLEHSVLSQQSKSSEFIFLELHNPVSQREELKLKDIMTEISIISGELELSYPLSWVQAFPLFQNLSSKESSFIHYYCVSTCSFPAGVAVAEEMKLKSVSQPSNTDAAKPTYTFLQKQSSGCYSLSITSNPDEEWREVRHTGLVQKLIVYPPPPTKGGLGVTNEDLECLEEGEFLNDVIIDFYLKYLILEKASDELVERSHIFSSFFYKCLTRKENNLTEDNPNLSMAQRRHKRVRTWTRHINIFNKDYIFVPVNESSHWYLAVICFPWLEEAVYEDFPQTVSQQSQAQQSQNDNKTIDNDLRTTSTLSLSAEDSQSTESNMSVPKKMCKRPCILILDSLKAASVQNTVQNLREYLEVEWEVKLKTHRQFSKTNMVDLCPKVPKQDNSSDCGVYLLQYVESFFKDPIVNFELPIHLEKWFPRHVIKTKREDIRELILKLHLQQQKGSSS

[20] = biological target: T5, Sentrin-specific protease 8 (Homo sapiens, UniProt Q96LD8); assay: inhibition of sentrin protease 8 – biochemical, luminescence, set 2, SAR follow-up (AID 588601); type: functional
T5 sequence (Q96LD8 whole entry): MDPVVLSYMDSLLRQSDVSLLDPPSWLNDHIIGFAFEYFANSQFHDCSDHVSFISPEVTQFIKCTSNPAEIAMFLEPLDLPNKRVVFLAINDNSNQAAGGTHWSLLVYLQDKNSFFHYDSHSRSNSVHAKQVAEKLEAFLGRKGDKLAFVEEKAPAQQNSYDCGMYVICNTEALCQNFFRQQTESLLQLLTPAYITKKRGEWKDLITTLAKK

[21] = biological target: T6, Sentrin-specific protease 6 (Homo sapiens, UniProt Q9GZR1); assay: inhibition of human SENP6 catalytic domain – biochemical, luminescence, set 2, SAR follow-up (AID 588598); type: functional
T6 sequence (Q9GZR1 whole entry): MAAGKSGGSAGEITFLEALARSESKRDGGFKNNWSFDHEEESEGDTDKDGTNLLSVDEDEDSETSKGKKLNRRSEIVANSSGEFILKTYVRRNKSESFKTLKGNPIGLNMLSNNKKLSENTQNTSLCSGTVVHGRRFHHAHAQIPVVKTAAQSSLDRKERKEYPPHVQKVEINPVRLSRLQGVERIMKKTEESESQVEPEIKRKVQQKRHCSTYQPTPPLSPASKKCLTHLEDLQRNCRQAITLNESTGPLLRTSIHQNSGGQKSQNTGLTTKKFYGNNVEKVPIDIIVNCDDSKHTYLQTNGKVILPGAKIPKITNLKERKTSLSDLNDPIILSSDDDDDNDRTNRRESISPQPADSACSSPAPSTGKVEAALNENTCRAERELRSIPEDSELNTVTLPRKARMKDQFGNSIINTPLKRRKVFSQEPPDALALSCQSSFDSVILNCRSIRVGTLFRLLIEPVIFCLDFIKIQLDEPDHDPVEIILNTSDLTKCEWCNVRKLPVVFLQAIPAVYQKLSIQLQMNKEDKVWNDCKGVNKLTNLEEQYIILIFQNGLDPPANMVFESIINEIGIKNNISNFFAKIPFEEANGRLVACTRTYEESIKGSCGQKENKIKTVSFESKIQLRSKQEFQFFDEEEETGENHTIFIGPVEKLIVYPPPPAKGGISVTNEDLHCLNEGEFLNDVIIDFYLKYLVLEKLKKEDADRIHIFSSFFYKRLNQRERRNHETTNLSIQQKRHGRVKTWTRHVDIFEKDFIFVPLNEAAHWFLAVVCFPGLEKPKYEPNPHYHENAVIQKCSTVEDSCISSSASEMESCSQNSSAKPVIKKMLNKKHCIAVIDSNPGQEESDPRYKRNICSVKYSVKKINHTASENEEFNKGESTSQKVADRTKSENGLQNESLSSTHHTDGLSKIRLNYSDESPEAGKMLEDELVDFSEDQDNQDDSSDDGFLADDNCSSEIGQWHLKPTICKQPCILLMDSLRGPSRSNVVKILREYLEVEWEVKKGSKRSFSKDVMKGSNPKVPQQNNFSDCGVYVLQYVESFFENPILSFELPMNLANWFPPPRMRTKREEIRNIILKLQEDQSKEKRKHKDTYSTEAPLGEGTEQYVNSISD

[22] = biological target: T7, Caspase-3 (Homo sapiens, UniProt P42574); assay: inhibition of recombinant caspase-3 activity – biochemical, luminescence, set 2, selectivity assay for SENP protease inhibitor project, SAR follow-up (AID 588599); type: functional
T7 sequence (P42574 whole entry): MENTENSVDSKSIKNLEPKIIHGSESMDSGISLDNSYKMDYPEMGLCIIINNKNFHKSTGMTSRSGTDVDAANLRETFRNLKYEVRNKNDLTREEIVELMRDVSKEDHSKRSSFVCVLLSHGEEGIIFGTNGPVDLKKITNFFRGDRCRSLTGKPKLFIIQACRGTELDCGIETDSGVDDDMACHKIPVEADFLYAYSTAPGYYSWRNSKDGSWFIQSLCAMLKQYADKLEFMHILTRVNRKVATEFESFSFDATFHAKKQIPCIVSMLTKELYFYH

SMILES: CCSc1nnc(NC(=O)c2ccc3ccccc3n2)s1
- EC50 [1]: 2.08 µM (active)
- IC50 [2]: > 50 µM (inactive)
- IC50 [3]: 6.86 µM (active)
- IC50 [4]: 2.67 µM (active)
- EC50 [5]: 6.46 µM (active)
- IC50 [6]: > 49.7 µM (inactive)
- IC50 [7]: > 66.2 µM (inactive)
- IC50 [8]: > 88.8 µM (inactive)

SMILES: Cc1cc(NC(=O)c2ccc3c(c2)OCCO3)no1
- AC50 [9]: 4.15 µM (active)
- AC50 [10]: 32.7 µM (active)
- AC50 [11]: 49.6 µM (active)

SMILES: CC(=O)N/N=C(\C)c1ccc(NC(=O)C2CC2)cc1
- EC50 [12]: 500 µM (inactive)

SMILES: COc1cccc(C(=O)Nc2ccc3[nH]c(-c4cccc(OC)c4)cc(=O)c3c2)c1
- IC50 [13]: > 79 µM (inactive)
- IC50 [14]: > 79 µM (inactive)
- IC50 [15]: 42.2 µM (inactive)

SMILES: C[C@@H]1CN([C@@H](C)CO)C(=O)c2cccc(NC(=O)Nc3cccc4ccccc34)c2O[C@H]1CN(C)S(=O)(=O)c1ccc2c(c1)OCO2
- AC50 [16]: 49.4 µM (active)
- AC50 [17]: > 195 µM (inactive)
- AC50 [18]: 29.8 µM (active)

SMILES: O=C(N/N=C/c1c[nH]c2ccccc12)C1CC1c1ccccc1 (configuration not stated)
- IC50 [19]: > 99 µM (inactive)
- IC50 [20]: > 99 µM (inactive)
- IC50 [21]: > 99 µM (inactive)
- IC50 [22]: > 99 µM (inactive)
